A short description of the test: Production of organic acids after fermentation in donkey milk (HPLC). Conditions: absolute area, produced during fermentation, grown in donkey milk. How it is done: The production of organic acids after fermentation was determined by high-performance liquid chromatography of filtered supernatants (Vulevic, Rastall & Gibson, 2004; Nazzaro et al. 2009), using a Gold System apparatus equipped with an ultraviolet detector (Beckman, CA, USA). Samples were loaded onto a pre-packed Aminex HPX-87 column (300 7.8 mm, Bio-Rad, Hercules, Calif., USA) and eluted with […] sulphuric acid. Total running time was 40 min; flow rate was 0.6 ml/min; injection volume was 20 μl; and detection wavelength was 210 nm.
In the following tables are reported the amount of butyric acid and citric acid produced during fermentation by strains of the invention and some strains of reference, grown in donkey milk. The data are expressed in terms of absolute area (mm^2): […]

On to Lactobacillus acidophilus, for which the “Amount of butyric acid” value is given as 26.21 mm^2 and the “Amount of citric acid” value came out at 51.37 mm^2.
